{
  "source": "patent US20050054103A1",
  "about": "“Expansion of renewable stem cell populations using modulators of PI 3-kinase” (priority 2003, published 2005)",
  "key": {"[1]": {"system": "Lin− c-kit+ Sca-1+ murine hematopoietic precursors", "conditions": "cultured 7 days; cited from earlier work"}, "[2]": {"system": "CD34+ cells", "assay": "Ex vivo expansion of CD34+ cells with the PI 3-kinase inhibitor Ly294002", "type": "cell-based, human", "method": "Mononuclear cell fraction collection and purification: Human blood cells were obtained from umbilical cord blood from female patients following full-term, normal delivery (informed consent was obtained). Samples were collected and processed within 12 hours postpartum. […] Louis, Mo.), sedimented for 30 minutes to remove most red blood cells. The leukocyte-rich fraction was harvested and layered on a Ficoll-Hypaque gradient (1.077 gram/ml; Sigma), and centrifuged at 400 g for 30 minutes. […] Sigma, St. Louis, Mo.). Purification of CD34^+ cells from mononuclear cell fractions: To purify CD34^+ mononuclear cells, the mononuclear cell fraction was subjected to two cycles of immuno-magnetic separation using the MiniMACS® or […]® CD34 Progenitor Cell Isolation Kit (Miltenyi Biotec, Auburn, Calif.) as per manufacturer's recommendations. The purity of the CD34^+ population obtained ranged from 95% to 98%, as determined by flow cytometry (see below). Ex vivo expansion: Purified CD34+ cells were cultured in culture bags (American Fluoroseal Co. Gaithersburg, Md., USA) at a concentration of 1×10^4 cells/ml in MEMα/10% FCS containing the following human recombinant cytokines: […] The cultures were replenished weekly, for three weeks, with the same volume of fresh medium, Ly294002 and growth factors. From week three and up to the termination of the experiments the cultures were weekly demi-depopulated. Cells were counted following staining with trypan blue. At various time points, harvested cells were used to assay the content of colony forming units in culture (CFUc), enumeration of CD34+ cells following re-selection and immunophenotype analysis. Cell morphology was determined on cytospin (Shandon, Pittsburgh, Pa., USA) prepared smears stained with May-Grunwald/Giemsa solutions. Surface antigen analysis: The cells were washed with a PBS solution containing 1% BSA, and stained (at 4° C. for 30 min) with fluorescein isothiocyanate (FITC)- or phycoerythrin (PE)-conjugated antibodies. The cells were then washed in the above buffer and analyzed using a FACScalibur® flow cytometer (Becton Dickinson, San Jose, Calif., USA). The cells were passed at a rate of up to 1000 cells/second, using a 488 nm argon laser beam as the light source for excitation. Emission of 10^4 cells was measured using logarithmic amplification, and analyzed using the CellQuest software (Becton Dickinson). Determination of CD34+ cell content after expansion: The content of CD34+ cells was determined from a purified, re-selected fraction of expanded hematopoietic progenitor cells, using the MiniMACS CD34 progenitor cell isolation kit (Miltenyi Biotec) according to the manufacturers recommendations. In brief, mononuclear cells derived from one portion of the culture were subjected to two cycles of immunomagnetic bead separation. The purity of the CD34+ population thus obtained was 95-98%, as evaluated by flow cytometry. CD34+ cell content of the entire culture was calculated as follows: number of CD34+ cells recovered following repurification after expansion multiplied by the culture volume/volume of the portion of the culture subjected to repurification (CD34+total=CD34+ in sample×total culture volume/volume of repurified sample). Up to week three the cultures were topped weekly with fresh medium. Therefore, the culture volume was measured directly. From week three and on (due to demi-depopulation), the culture volume was calculating by multiplying the actual volume with the number of passages. Fold expansion was calculated by dividing the CD34+ cell content of the culture by the number of inoculated CD34+ cells (Fold expansion=total CD34+ content/CD34+ inoculated). […] Determination of early CD34+ cell subsets: The percentages of the early CD34+ cell subsets were determined as well from the re-purified CD34+ cell fraction. […]"}, "[3]": {"conditions": "cited from earlier work"}, "[4]": {"system": "CD34 cells", "assay": "Transition metal chelators in CD34+ cell liquid cultures (cell number, CD34 cells, clonability)", "type": "cell-based, human", "method": "The interphase layer of mononuclear cells were collected, washed three times with Ca/Mg free phosphate buffered saline containing 1% bovine serum albumin (BSA). The cells were incubated for 30 min. at 4° C. with murine monoclonal anti CD34 antibody (0.5 μg/10^6 mononuclear cells) and thereafter isolated using the miniMACS apparatus (Miltenyi-Biotec, Bergisch, Gladbach, Germany) according to the manufacturer's protocol.\nCulture procedures: For the expansion of progenitor cells, CD34^+ enriched fractions or unseparated mononuclear cells were seeded at about 1-3×10^4 cells/ml in either alpha minimal essential medium containing 10% preselected fetal calf serum (FCS) (both from GIBCO, Grand Island, N.Y.), or serum-free medium (Progenitor-34 medium, Life Technologies, Grand Island, N.Y.). The media were supplemented with a mixture of growth factors and transition metal chelators. The cultures were incubated at 37° C. in an atmosphere of 5% CO2 in air with extra humidity. Half of the medium was changed weekly with fresh medium containing all the supplements.\nCloning potential evaluations: The cloning potential of cells developed in the liquid culture was assayed, at different intervals, in semi-solid medium. The cells were washed and seeded in 35 mm dishes in methylcellulose containing alpha medium supplemented with recombinant growth factors (SCF, G-CSF, GM-CSF and EPO). Following 2 weeks incubation, the cultures were scored with an inverted microscope. Colonies were classified as blast, mixed, erythroid, myeloid, and megakaryocytic, according to their cellular composition.\nMorphological assessment: In order to characterize the resulting culture populations, aliquots of cells were deposited on a glass slide (cytocentrifuge, Shandon, Runcorn, UK), fixed and stained in May-Grunwald Giemsa. Other aliquots were stained by benzidine for intracellular hemoglobin.\nImmunofluorescence staining: At different intervals, cells from the liquid cultures were assayed for CD34 antigen. Aliquots were harvested, washed and incubated on ice with FITC-labeled anti CD45 monoclonal antibody and either PE-labeled anti CD34 (HPCA-2) monoclonal antibody or PE-labeled control mouse Ig. After incubation, red cells were lysed with lysing solution, while the remaining cells were washed and analyzed by flow cytometer.\nFlow cytometry: Cells were analyzed and sorted using FACStar^plus flow cytometer (Becton-Dickinson, Immunofluorometry systems, Mountain View, Calif.). Cells were passed at a rate of 1,000 cells/second through a […] nozzle, using saline as the sheath fluid. […] The PMTs was set at the appropriate voltage. Logarithmic amplification was applied for measurements of fluorescence and linear amplification—for forward light scatter. At least 10^4 cells were analyzed.\nCord blood-derived CD34 cells were plated in liquid culture in the presence of: FL—50 ng/ml, SCF—50 ng/ml, IL-6—50 ng/ml, with or without IL-3—20 ng/ml, with or without TEPA—10 μM. On day 7, the percentage of CD34 cells and the total cell number were determined. Aliquots equivalent to 1×10^3 initiating cells were assayed on days 0 and 7 for colony forming cells (CFU) by cloning in semi-solid medium. CFU expansion represents the ratio of CFU present on day 7 to CFU present on day 0.\nCD34^+ cells derived from human neonatal cord blood were purified by immunomagnetic method and then cultured in liquid medium supplemented with cytokines either with or without transition metal chelators. At weekly intervals, the cultures were demi-depopulated by removing half of the culture content (supernatant and cells) and replacing it with fresh medium, cytokines and the chelators. At the indicated weeks the cellular content of the cultures were quantified for total cells (by a manual microscopic/hemocytometric method), for CD34^+ cells (by immuno-flow cytometry) and for clonogenic cells (by cloning the cells in cytokine-supplemented semi-solid medium)."}, "[5]": {"system": "HL-60 (human myeloid leukemia cell line)", "assay": "Inhibition / induction of differentiation and growth inhibition of HL-60 cells by chelators", "type": "cell-based", "conditions": "1000 nM", "description": "(§1) FIG. 44 provides the chemical structure of the various chelators employed in these experiments."}, "[6]": {"system": "HL-60 cells", "assay": "Copper determination in chelator treated cells (atomic absorption)", "type": "cell-based, human", "method": "Copper Determination: Cells were harvested by centrifugation at 1000×g for 5 minutes. The cell pellet was washed three times by re-suspending the cells in PBS (Ca^++ and Mg^++ free) and centrifugation at 1000×g. An aliquot containing 2×10^6 cells was then transferred into a metal-free Eppendorf tube and the cells were recovered by centrifugation at 1000×g. The cell pellet was re-suspended in 0.03 M ultra-pure nitric acid to give a concentration of 1×10^7 cells/ml. The cells were homogenized with a high shear mixer (polytron, Kinematica, Switzerland) for 1 minutes to disrupt the cell and release intracellular copper content. Cell samples were vortexed before transferring to a vial autosampler and analyzed in duplicate by a Perkin Elmer graphite furnace atomic absorption spectrophotometer at a wavelength of 324.7 nm. The samples were analyzed against copper standard solution prepared from a commercial stock solution that was diluted with 0.03 M ultra pure nitric acid.\nas §1"}, "[7]": {"system": "cord blood-derived CD34+ cells", "assay": "Copper-chelating peptides in CD34 cell cultures (proliferation, clonability)", "type": "cell-based, human", "conditions": "after 7 weeks; peptides 10 μM each, G-CSF and GM-CSF 10 ng/ml each", "method": "CD34 cells selection: Peripheral blood “buffy coat” cells derived from a whole blood unit, peripheral blood cells obtained following leukapheresis, or blood cells were layered on Ficoll-Hypaque (density 1.077 g/ml) and centrifuged at 1,000×g for 20 minutes at room temperature. The interphase layer of mononuclear cells were collected, washed three times with Ca/Mg free phosphate buffered saline containing 1% bovine serum albumin (BSA). The cells were incubated for 30 minutes at 4° C. with murine monoclonal anti CD34 antibody (0.5 μg/10^6 […] cells) and thereafter isolated using the miniMACA apparatus (Miltenyi-Biotec, Bergisch, Gladbach, Germany) according to the manufacturer's protocol.\nCulture procedures: For the expansion of progenitor cells, CD34^+ enriched fractions were seeded at 1×10^4 cells/ml in alpha minimal essential medium containing 10% preselected fetal calf serum (FCS) (both from GIBCO, Grand Island, N.Y.). The medium was supplemented with a mixture of growth factors and Copper chelators. The cultures were incubated at 37° C. in an atmosphere of 5% CO2 in air with extra humidity. Half of the medium was changed weekly with fresh medium containing all the supplements.\nThe cloning potential of the cultured cells was assayed in semi-solid medium. The cells were washed and seeded in 35 mm dishes in methylcellulose containing alpha medium supplemented with 30% FCS and further with recombinant growth factors (stem cell factor (SCF), G-CSF, GM-CSF and erythropoietin (EPO)). Following two week incubation, the cultures were scored with an inverted microscope. Colonies were classified as blast, mixed, erythroid, myeloid, and megakaryocytic, according to their cellular composition.\nThe effect of Copper-chelating peptides on proliferation and clonability in CD34 cell cultures: Cultures were initiated with 10^4 cord blood-derived CD34^+ cells by plating purified cells in liquid medium in the presence of SCF, FLT3 and IL-6 (50 ng/ml each) and the Copper-binding peptides, Gly-Gly-His (GGH) or Gly-His-Lys (GHL) (10 μM each), or the late-acting cytokines G-CSF and GM-CSF (10 ng/ml each). At weekly intervals, the cultures were demi-depopulated and supplemented with fresh medium, cytokines and the peptides. After 7 weeks, cells were counted and assayed for CFUc."}, "[8]": {"conditions": "Cytokines + Ly294002, two weeks"}, "[9]": {"conditions": "Cytokines + Ly294002, two weeks, percentage of re-purified CD34+ cells"}},
  "data": [
    {"molecule": "Cc1ccc(C2=CCC(C)(C)c3ccc(C#Cc4ccc(C(=O)O)cc4)cc32)cc1", "note": "[AGN 193109]", "values": [
      {"measurement": "increase in the pre-CFU-S population", "setting": "[1]", "value": "approximately 6 fold"}
    ]},
    {"molecule": "O=c1cc(N2CCOCC2)oc2c(-c3ccccc3)cccc12", "note": "[LY294002]", "values": [
      {"measurement": "CD34 + CD38- ×10^4", "setting": "[2]; [8]", "value": "4.8 ×10^4"},
      {"measurement": "CD34 + Lin- ×10^4", "setting": "[2]; [8]", "value": "1.3 ×10^4"},
      {"measurement": "CD34 × 10^4", "setting": "[2]; [8]", "value": "53 × 10^4"},
      {"measurement": "TNC × 10^4", "setting": "[2]; [8]", "value": "155 × 10^4"},
      {"measurement": "CD34 + CD38- (%)", "setting": "[2]; [9]", "value": 9.1, "unit": "%"},
      {"measurement": "CD34 + Lin- (%)", "setting": "[2]; [9]", "value": 2.5, "unit": "%"},
      {"measurement": "absolute content of CD34+CD38− cells", "setting": "[2]; two weeks", "value": "9×10^4 cells"},
      {"measurement": "absolute content of CD34+CD38−Lin− cells", "setting": "[2]; two weeks", "value": "2.5×10^4 cells"},
      {"measurement": "content of late progenitor, CD34+ cells", "setting": "[2]; two weeks, treated cultures", "value": "65×10^4 cells"},
      {"measurement": "frequency of CD34+ cells among the total cultured cells", "setting": "[2]; two-weeks treatment", "value": 0.3},
      {"measurement": "membrane permeability", "setting": "[3]", "value": "membrane permeable"}
    ]},
    {"molecule": "C1CNCCNCCNCCN1", "note": "[1,4,7,10-Tetraaza cyclododecane]", "values": [
      {"measurement": "effect on differentiation of CD34+ cells", "setting": "[4]", "value": "stimulate differentiation"},
      {"measurement": "Differentiation Induction", "setting": "[5]", "value": "Toxic"},
      {"measurement": "Average Intracellular ppb Cu", "setting": "[6]; 20 μM chelator", "value": 27.5, "unit": "ppb"},
      {"measurement": "Average Intracellular ppb Cu", "setting": "[6]; 100 μM chelator", "value": 73.9, "unit": "ppb"},
      {"measurement": "Average Intracellular ppb Cu", "setting": "[6]; 500 μM chelator", "value": "Toxic"},
      {"measurement": "activity at 20 µM", "setting": "[6]; Homo sapiens, HL-60, 20 μM chelator, read-out: Average Intracellular Cu (% of control)", "value": 56, "unit": "%"},
      {"measurement": "activity at 100 µM", "setting": "[6]; Homo sapiens, HL-60, 100 μM chelator, read-out: Average Intracellular Cu (% of control)", "value": 150, "unit": "%"}
    ]},
    {"molecule": "Gly-Gly-His [GGH]", "values": [
      {"measurement": "effect on differentiation of CD34+ cells", "setting": "[4]", "value": "stimulate differentiation"},
      {"measurement": "decrease of cell number", "setting": "[7]", "value": 10, "unit": "%"},
      {"measurement": "decrease of clonogenic potential (CFUc)", "setting": "[7]", "value": 80, "unit": "%"}
    ]},
    {"molecule": "Gly-His-Lys [GHL]", "values": [
      {"measurement": "effect on differentiation of CD34+ cells", "setting": "[4]", "value": "stimulate differentiation"},
      {"measurement": "decrease of cell number", "setting": "[7]", "value": 25, "unit": "%"},
      {"measurement": "decrease of clonogenic potential (CFUc)", "setting": "[7]", "value": 78, "unit": "%"}
    ]}
  ]
}
